Values of other authors as cited in US8623409B1, “Clonidine formulation” (Tris Pharma Inc., priority 2010, dated 2014).

Details: plasma level; see US patent application 2008/0152709

For Clc1cccc(Cl)c1NC1=NCCN1 [clonidine, N-(2,6-dichlorophenyl)-4,5-dihydro-1H-imidazol-2-amine], the “minimum effective dose for clonidine use as an anti-hypertensive agent” value is listed as 200 pg/mL.
